What follows are compounds tested against ENPP-1 (Ectonucleotide Pyrophosphatase/Phosphodiesterase 1) (Homo sapiens (Human), UniProt P22413) (assay: ENPP1 inhibition assay (AMP Glo, cGAMP substrate)). Conditions: cGAMP 20 μM substrate, ENPP1 1 nM.
Type: biochemical
Protocol: IC50 values of compounds against ENPP-1 (Ectonucleotide Pyrophosphatase/Phosphodiesterase 1) were determined at Integral BioSciences (India) using AMP Glo (Promega, Cat #V5011). Assay was performed in a 30 μL final volume in a white 96-well Half Area plate (Costar,Cat #3693). Dose response curve for the compounds were prepared in duplicates with starting conc. at 5 μM and a three-fold titration was performed. The reaction buffer consisted of 50 mM Tris (pH 8.0), 0.5 mM CaCl2), 1 μM ZnCl2, 250 mM NaCl and 0.1 mg/ml BSA. To the compound dilution, 15 μL of ENPP1 enzyme (R&D Systems; Cat #6136-EN-010) was added to each well (final conc. 1 nM) and the mix was pre-incubated for 15 min at RT. An equal volume (15 μL) containing cGAMP (Sigma, Cat #SML-1229) (final conc. 20 μM) was added to initiate the enzyme reaction and the reaction was incubated for 30 min at RT. The reaction was then stopped by heating at 90° C. for 3 minutes. 10 μl of reaction was then transferred to 384 well white, medium binding plates (Grenier, Cat #781075) to which 10 μl of AMP-Glo Reagent 1 was added and mixed well and incubated for 1 hour at 25° C. Following 60 min incubation, 20 μL of detection mixture was added to the enzyme reaction bringing the final volume to 40 μL. The reaction was further incubated for 60 min at RT after which the plates were read using BioTek Plate reader.
Analysis was done using the standard curve by non-linear regression, variable slope inhibitor curve fits (Graph-Pad Prism) and IC50's of compounds were determined wherever possible.

Sequence of ENPP-1 (Ectonucleotide Pyrophosphatase/Phosphodiesterase 1) (P22413 whole entry): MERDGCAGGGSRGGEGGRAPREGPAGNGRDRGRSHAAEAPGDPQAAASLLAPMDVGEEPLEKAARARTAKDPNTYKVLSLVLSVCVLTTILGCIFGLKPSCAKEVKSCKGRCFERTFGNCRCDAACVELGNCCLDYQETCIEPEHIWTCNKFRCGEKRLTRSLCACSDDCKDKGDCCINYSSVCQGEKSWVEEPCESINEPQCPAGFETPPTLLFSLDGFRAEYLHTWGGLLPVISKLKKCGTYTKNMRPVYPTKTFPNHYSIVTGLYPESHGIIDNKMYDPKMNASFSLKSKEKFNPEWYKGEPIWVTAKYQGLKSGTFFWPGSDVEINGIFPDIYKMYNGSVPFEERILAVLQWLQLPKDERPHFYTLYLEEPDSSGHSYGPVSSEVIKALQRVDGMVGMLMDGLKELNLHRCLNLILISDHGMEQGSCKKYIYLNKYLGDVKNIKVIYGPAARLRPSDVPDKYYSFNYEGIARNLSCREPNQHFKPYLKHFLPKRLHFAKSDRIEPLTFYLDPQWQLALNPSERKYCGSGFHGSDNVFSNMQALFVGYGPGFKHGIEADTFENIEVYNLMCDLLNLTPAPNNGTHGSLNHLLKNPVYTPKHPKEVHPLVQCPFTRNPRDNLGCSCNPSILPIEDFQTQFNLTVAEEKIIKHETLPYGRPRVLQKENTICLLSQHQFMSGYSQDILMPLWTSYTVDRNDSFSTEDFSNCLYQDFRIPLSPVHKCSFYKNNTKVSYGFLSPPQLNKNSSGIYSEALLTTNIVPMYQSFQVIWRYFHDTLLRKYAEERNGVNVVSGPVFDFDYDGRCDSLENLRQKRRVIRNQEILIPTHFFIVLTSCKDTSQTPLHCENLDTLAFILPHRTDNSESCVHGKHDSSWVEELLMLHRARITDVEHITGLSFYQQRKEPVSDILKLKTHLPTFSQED

Question: With `COc1ccc2c(N3CC4(CC(N(CC(F)F)S(N)(=O)=O)C4)C3)ncnc2c1` [Compound 1.131, N-(2,2-difluoroethyl)-N-(2-(7-methoxyquinazolin-4-yl)-2-azaspiro[3.3]heptan-6-yl) sulfamamide] as the compound, how does the IC50 read?
Answer: 0.055 µM

Question: Which IC50 does the source give for `COc1ccc2c(N3CC(CCNS(N)(=O)=O)C3)ncnc2c1` [Compound 1.8, (2-(1-(7-methoxyquinazolin-4-yl)azetidin-3-yl)ethyl)aminisulfonamide] here?
Answer: 0.008 µM

Question: `COc1cc2ncnc(N3CC(CCCS(=O)(=O)O)C3)c2cc1OC` [Compound 1.65, 3-(1-(6,7-dimethoxyquinazolin-4-yl)azetidin-3-yl)propane-1-sulfonic acid] was tested. Which IC50 did it give?
Answer: 0.078 µM

Question: With `CN(C1CC2(C1)CN(c1nc(Cl)nc3c1cnn3C)C2)S(N)(=O)=O` [Compound 1.96, N-(2-(6-chloro-1-methyl-1H-pyrazolo[3,4-d]pyrimidin-4-yl)-2-azaspiro[3.3]heptan-6-yl)-N-methylsulfamamide] as the compound, how does the IC50 read?
Answer: > 3 µM

Question: With `COc1cc2ncnc(N3CC4(CC(NS(N)(=O)=O)C4)C3)c2cc1OC` [Compound 1.15, 4-(6-sulfamoylamino-2-azaspiro[3.3]heptan-2-yl)-6,7-dimethoxyquinazoline] as the compound, how does the IC50 read?
Answer: 0.005 µM

Question: Which IC50 does the source give for `Cc1c(C#N)cn2ncnc(N3CC4(CC(N(C)S(N)(=O)=O)C4)C3)c12` [Compound 1.78, N-(2-(6-cyano-5-methylpyrrolo[1,2-f][1,2,4]triazin-4-yl)-2-azaspiro[3.3]heptan-6-yl)-N-methylsulfamamide] here?
Answer: 0.964 µM

Question: Which IC50 does the source give for `COc1cc2nc(C3CC3)nc(N3CC(CCNS(N)(=O)=O)C3)c2cc1OC` [Compound 1.25, 4-(3-(2-sulfamoylaminoethyl)azetidine-1-yl)-2-cyclopropyl-6,7-dimethoxyquinazoline] here?
Answer: 0.66 µM

Question: Which IC50 does the source give for `COc1cc2ncc(C#N)c(N3CC4(CC(NS(N)(=O)=O)C4)C3)c2cc1OC` [Compound 1.24, 4-(6-sulfamoylamino-2-azaspiro[3.3]heptan-2-yl)-6,7-dimethoxyquinoline-3-carbonitrile] here?
Answer: 0.002 µM

Question: How did the IC50 turn out when `Cc1cc(Cl)n2ncnc(N3CC4(CC(N(CC5CC5)S(N)(=O)=O)C4)C3)c12` [Compound 1.115, N-(2-(7-chloro-5-methylpyrrolo[2,1-f][1,2,4]triazin-4-yl)-2-azaspiro[3.3]heptan-6-yl)-N-(cyclopropylmethyl)sulfamamide] was run?
Answer: 0.051 µM

Question: How did the IC50 turn out when `COc1cc2[nH]c(=O)nc(N3CC(CCNS(N)(=O)=O)C3)c2cc1OC` [Compound 1.2, (2-(1-(6,7-dimethoxy-2-oxo-1,2-dihydroquinazolin-4-yl)azetidin-3-yl)ethyl)amiosulfonamide] was run?
Answer: > 5 µM

Question: Which IC50 does the source give for `COc1cc2ncnc(N3CC(/C=C/S(N)(=O)=O)C3)c2cc1OC` [Compound 1.55, (E)-2-(1-(6,7-dimethoxyquinazolin-4-yl)azetidin-3-yl)ethenesulfonamide] here?
Answer: 0.036 µM

Question: Which IC50 does the source give for `Cc1c(Br)cn2ncnc(N3CC(CCNS(N)(=O)=O)C3)c12` [Compound 1.72, 4-(3-(2-sulfamoylaminoethyl)azetidine-1-yl)-6-bromo-5-methylpyrrolo[1,2-f][1,2,4]triazine] here?
Answer: > 3 µM

Question: With `Cn1ncc2c(N3CC4(CC(N(CC(F)F)S(N)(=O)=O)C4)C3)ncnc21` [Compound 1.121, N-(2,2-difluoroethyl)-N-(2-(1-methyl-1H-pyrazolo[3,4-d]pyrimidin-4-yl)-2-azaspiro[3.3]heptan-6-yl)sulfamamide] as the compound, how does the IC50 read?
Answer: 0.565 µM

Question: For `COc1cccc2c(N3CC(CCNS(N)(=O)=O)C3)c(C#N)cnc12` [Compound 1.9, (2-(1-(3-cyano-8-methoxyquinolin-4-yl)azetidin-3-yl)ethyl)aminisulfonamide], which IC50 is on record?
Answer: 0.032 µM

Question: With `CN(C1CC2(C1)CN(c1ncnc3[nH]cc(Cl)c13)C2)S(N)(=O)=O` [Compound 1.124, N-(2-(5-chloro-7,7α-dihydro-4αH-pyrrolo[2,3-d]pyrimidin-4-yl)-2-azaspiro[3.3]heptan-6-yl)-N-methylsulfamamide] as the compound, how does the IC50 read?
Answer: 1.86 µM

Question: How did the IC50 turn out when `Cc1cc(Cl)n2ncnc(N3CC4(CC(N(C[C@@H](O)C(F)(F)F)S(N)(=O)=O)C4)C3)c12` (stereo in doubt) [Compound 1.125, N-(2-(7-chloro-5-methylpyrrolo[2,1-f][1,2,4]triazin-4-yl)-2-azaspiro[3.3]heptan-6-yl)-N-(3,3,3-trifluoro-2-hydroxypropyl)sulfamide] was run?
Answer: 0.05 µM

Question: `Cc1cc(Cl)n2ncnc(N3CC(CCN(C4CC4)S(N)(=O)=O)C3)c12` [Compound 1.92, N-(2-(1-(7-chloro-5-methylpyrrolo[2,1-f][1,2,4]triazin-4-yl)azetidin-3-yl)ethyl)-N-cyclopropylsulfamamide] was tested. Which IC50 did it give?
Answer: 1.51 µM

Question: How did the IC50 turn out when `Cc1ccn2ncnc(N3CC4(CC(NS(N)(=O)=O)C4)C3)c12` [Compound 1.62] was run?
Answer: 0.067 µM

Question: With `CCCN(CCC1CN(c2ncnn3c(Cl)cc(C)c23)C1)S(N)(=O)=O` [Compound 1.95, N-(2-(1-(7-chloro-5-methylpyrrolo[2,1-f][1,2,4]triazin-4-yl)azetidin-3-yl)ethyl)-N-propylsulfamamide] as the compound, how does the IC50 read?
Answer: 1.88 µM

Question: `Cc1cc(Cl)n2ncnc(N3CC4(CC(N(CCF)S(N)(=O)=O)C4)C3)c12` [Compound 1.127, N-[2-(7-chloro-5-methylpyrrolo[2,1-f][1,2,4]triazin-4-yl)-2-azaspiro[3.3]hept-6-yl]-2-fluoroethylsulfuric diamide] was tested. Which IC50 did it give?
Answer: 0.043 µM

Question: Which IC50 does the source give for `Cc1cc(Cl)n2nc(-c3ccc(F)cc3)nc(N3CC4(CC(N(C)S(N)(=O)=O)C4)C3)c12` [Compound 1.106, N-(2-(7-chloro-2-(4-fluorophenyl)-5-methylpyrrolo[2,1-f][1,2,4]triazin-4-yl)-2-azaspiro[3.3]heptan-6-yl)-N-methylsulfamamide] here?
Answer: > 3 µM

Question: How did the IC50 turn out when `Cc1cc(Br)n2ncnc(N3CC4(CC(N(C)S(N)(=O)=O)C4)C3)c12` [Compound 1.79, N-(2-(7-bromo-5-methylpyrrolo[1,2-f][1,2,4]triazin-4-yl)-2-azaspiro[3.3]heptan-6-yl)-N-methylsulfamamide] was run?
Answer: 0.053 µM

Question: `Cc1cc(Cl)n2ncnc(N3CC4(CC(N(CC(F)F)S(N)(=O)=O)C4)C3)c12` [Compound 1.99, N-(2-(7-chloro-5-methylpyrrolo[2,1-f][1,2,4]triazin-4-yl)-2-azaspiro[3.3]heptan-6-yl)-N-(2,2-difluoroethyl)sulfamamide] was tested. Which IC50 did it give?
Answer: 0.01 µM

Question: For `COc1cc2nncc(N3CC4(CC(N(C)S(N)(=O)=O)C4)C3)c2cc1OC` [Compound 1.68, 4(6-N-methylsulfamoylamino)-2-azaspiro[3.3]heptan-2-yl-6,7-dimethoxycinnoline], which IC50 is on record?
Answer: 0.003 µM

Question: `Cn1ccc2ncnc(N3CC(CCNS(N)(=O)=O)C3)c21` [Compound 1.14, 4-(3-(2-sulfamoylaminoethyl)azetidine-1-yl)-5-methyl-5H-pyrrolo[3,2-d]pyrimidine] was tested. Which IC50 did it give?
Answer: 0.12 µM

Question: With `Cc1cc(Cl)n2ncnc(N3CC(CCN(C(C)C)S(N)(=O)=O)C3)c12` [Compound 1.83, N-(2-(1-(7-chloro-5-methylpyrrolo[2,1-f][1,2,4]triazin-4-yl)azetidin-3-yl)ethyl)-N-isopropylsulfamamide] as the compound, how does the IC50 read?
Answer: > 3 µM

Question: With `Cc1ccn2ncnc(N3CC(CCB(O)O)C3)c12` [Compound 1.59, 2-(1-(5-methylpyrrolo[1,2-f][1,2,4]triazin-4-yl)azetidin-3-yl)ethylboronic acid] as the compound, how does the IC50 read?
Answer: > 3 µM

Question: `COc1cc2nc(-c3ccc(F)cc3)nc(N3CC(CCNS(N)(=O)=O)C3)c2cc1OC` [Compound 1.33, 4-(3-(2-sulfamoylaminoethyl)azetidine-1-yl)-2-(4-fluorophenyl)-6,7-dimethoxyquinazoline] was tested. Which IC50 did it give?
Answer: 0.248 µM

Question: Which IC50 does the source give for `CN(C1CC2(C1)CN(c1ncnc3c(Cl)cn(C)c13)C2)S(N)(=O)=O` [Compound 1.123, N-(2-(7-chloro-5-methyl-5H-pyrrolo[3,2-d]pyrimidin-4-yl)-2-azaspiro[3.3]heptan-6-yl)-N-methylsulfamamide] here?
Answer: 0.039 µM

Question: `CN(C1CC2(C1)CN(c1ncnc3c1cnn3C)C2)S(N)(=O)=O` [Compound 1.105, N-methyl-N-(2(1-methyl-1H-pyrazolo[3,4-d]pyrimidin-4-yl)-2-azaspiro[3.3]heptan-6-yl)sulfamamide] was tested. Which IC50 did it give?
Answer: 0.091 µM

Question: For `CCc1nc(N2CC(CCNS(N)(=O)=O)C2)c2ccc(OC)cc2n1` [Compound 1.37, 2-ethyl-7-methoxy-4-[3-[2-(sulfamoylamino)ethyl]azetidin-1-yl]quinazoline], which IC50 is on record?
Answer: > 3 µM

Question: Which IC50 does the source give for `Cc1cc(Cl)n2ncnc(N3CC4(CC(N(CC5CCC(C(F)(F)F)CC5)S(N)(=O)=O)C4)C3)c12` (stereo not shown) [Compound 1.119, N-(2-(7-chloro-5-methylpyrrolo[2,1-f][1,2,4]triazin-4-yl)-2-azaspiro[3.3]heptan-6-yl)-N-((4-(trifluoromethyl)cyclohexyl)methyl)sulfamamide] here?
Answer: 0.218 µM

Question: Which IC50 does the source give for `COc1cc2ncnc(N3CC(CCNS(N)(=O)=O)(c4ccccc4)C3)c2cc1OC` [Compound 1.58, 4-3-(2-(sulfamoylamino)ethyl)-3-phenylazetidin-1-yl-6,7-dimethoxyquinazoline] here?
Answer: 0.66 µM

Question: `COc1cc2ncnc(N3CC(CNS(N)(=O)=O)C3)c2cc1OC` [Compound 1.10, N-((1-(6,7-dimethoxyquinazolin-4-yl)azetidin-3-yl)methyl) aminisulfonamide] was tested. Which IC50 did it give?
Answer: 0.028 µM
